Converted amounts (≈) assume the structure as drawn. Read-outs that look alike come from different tables or passages of the source.
What was measured:
Format in all cases: cell-based, Helicobacter pylori
[1] = test system: H. pylori strain 10K (CagA+); assay: Minimal bactericidal concentration (MBC), broth dilution with subculture on agar; settings: substance alone
[2] = test system: H. pylori strain G50 (CagA−); assay: as above; settings: substance alone
[3] = test system: H. pylori strain M/C-R2 (CagA+, resistant to met and clar); assay: as above; settings: substance alone
[4] = test system: H. pylori strain CCUG 17874 (CagA+); assay: as above
[5] = test system: H. pylori strain 4 Kb (CagA+); assay: as above; settings: substance alone
[6] = test system: H. pylori strain M/C-R1 (CagA+, resistant to met and clar); assay: as above; settings: substance alone
[7] = test system: H. pylori strain 328 (CagA+); assay: as above; settings: substance alone
[8] = test system: H. pylori strain Di Simpli (CagA+); assay: as above; settings: substance alone
[9] = test system: H. pylori strain G21 (CagA−); assay: as above; settings: substance alone
[10] = test system: H. pylori strain 328 Km (isogenic mutant CagA−); settings: substance alone
[11] = Helicobacter pylori, read-out: MBC
[12] = Helicobacter pylori, CCUG17874, substance alone, read-out: MBC

Compound | MBC [1, 11] | MBC [2, 11] | MBC [3, 11] | MBC [4, 12] | MBC [6, 11] | MBC [7, 11] | MBC [8, 11] | also measured
CC1(C)S[C@@H]2[C@H](NC(=O)[C@H](N)c3ccc(O)cc3)C(=O)N2[C@H]1C(=O)O [amoxicillin] | 0.08 µg/mL (≈ 0.219 µM) | 0.04 µg/mL (≈ 0.109 µM) | – | – | – | – | – | –
CC[C@H]1OC(=O)[C@H](C)[C@@H](O[C@H]2C[C@@](C)(OC)[C@@H](O)[C@H](C)O2)[C@H](C)[C@@H](O[C@@H]2O[C@H](C)C[C@H](N(C)C)[C@H]2O)[C@](C)(OC)C[C@@H](C)C(=O)[C@H](C)[C@@H](O)[C@]1(C)O [clarithromycin] | – | 0.2 µg/mL (≈ 0.267 µM) | 2500 µg/mL (≈ 3340 µM) | 0.25 µg/mL (≈ 0.334 µM) | 320 µg/mL (≈ 428 µM) | 0.2 µg/mL (≈ 0.267 µM) | 0.4 µg/mL (≈ 0.535 µM) | MBC [5, 11]: 0.1 µg/mL (≈ 0.134 µM); MBC [9, 11]: 0.2 µg/mL (≈ 0.267 µM)
C[C@H]1COc2c(N3CCN(C)CC3)c(F)cc3c(=O)c(C(=O)O)cn1c23 [levofloxacin] | 0.31 µg/mL (≈ 0.858 µM) | 0.16 µg/mL (≈ 0.443 µM) | – | – | – | – | – | –
Cc1ncc([N+](=O)[O-])n1CCO [metronidazole] | – | – | 320 µg/mL (≈ 1870 µM) | 3.1 µg/mL (≈ 18.1 µM) | 40 µg/mL (≈ 234 µM) | 16 µg/mL (≈ 93.5 µM) | 10 µg/mL (≈ 58.4 µM) | –
polyoxyethylene (20) sorbitan monooleate [polysorbate 80] | – | – | – | – | – | – | – | MBC [10]: 62 µg/mL; MBC [3]: 62 µg/mL; MBC ([4]; substance alone): 5.0 µg/mL; MBC [5]: 31 µg/mL; MBC [6]: 160 µg/mL; MBC [7]: 31 to 62 µg/mL; MBC ([7]; listed as polysorbate): 62 µg/mL; MBC [8]: 25 µg/mL; MBC [1]: 6.2 µg/mL; MBC [2]: 4.0 µg/mL; MBC ([2]; listed as polysorbate): 4 µg/mL; MBC [9]: 1.6 µg/mL
